Experimental data published in patent US7354911B2, “1,3-benzodioxol compound and use of same” (Sumitomo Chemical Company, Limited, priority 2006, dated 2008).

Test system: Musca domestica
Experiment: Topical application of acetone solution to female adult Musca domestica, mortality after 24 hours
Type: in vivo
Details: 0.5 μL acetone solution on back of chest region, 25° C.
Protocol: After mixing the present compounds (1), (2), (3), (4), (5), and (6) with d-allethrin respectively, acetone solutions containing each mixture with the respective prescribed concentrations (w/v) listed in Table 2 were prepared. An adult Musca domestica was applied with 0.5 μL of the acetone solution dropped on the back side of its chest region, transferred to a plastic cup having about 9 cm diameter and about 4.5 cm height, and then left at 25° C. with being fed by 5% of aqueous sugar solution. […] The number of the Musca domesticas contained in each cup was 10, and the test was repeated twice.
Furthermore, after preparing acetone solutions containing each of the present compounds (1), (2), (3), (4), (5), and (6) and d-allethrin in the respective prescribed concentrations (w/v) listed in Table 2, a test was conducted as the same manner mentioned above.
For comparison, with using 4,5-methylenedioxy-2-propylphenyl2-butoxyethyl ether (hereinafter, referred to as a comparative compound)
[drawing 16] in place of the present compounds, a test was conducted in the same manner.

[1] = test compound 1.25 % (w/v) alone, d-allethrin 0 % (w/v)
[2] = test compound 1.25 % (w/v) mixed with d-allethrin 0.25 % (w/v)

SMILES	mortality ratio (d-allethrin 0.25 % (w/v) alone, no test compound) [%]	mortality ratio [1] [%]	mortality ratio [2] [%]
C=CCC1=C(C)C(OC(=O)C2C(C=C(C)C)C2(C)C)CC1=O (stereo not drawn) [d-allethrin, reference compound]	0	–	–
CCCc1cc2c(cc1OCCOC)OCO2 [The present compound (2), 5-(2-methoxyethoxy)-6-propyl-1,3-benzodioxol]	–	0	90
C=CCc1cc2c(cc1OCCOCC)OCO2 [The present compound (3), 5-(2-ethoxyethoxy)-6-(2-propenyl)-1,3-benzodioxol]	–	0	100
C=CCc1cc2c(cc1OCCOC)OCO2 [The present compound (1), 5-(2-methoxyethoxy)-6-(2-propenyl)-1,3-benzodioxol]	–	0	100
CCCc1cc2c(cc1OCCOCC)OCO2 [The present compound (4), 5-(2-ethoxyethoxy)-6-propyl-1,3-benzodioxol]	–	0	100
CCCCOCCOc1cc2c(cc1CCC)OCO2 [Comparative compound, 4,5-methylenedioxy-2-propylphenyl2-butoxyethyl ether, reference compound]	–	0	55
CCCOCCOc1cc2c(cc1CCC)OCO2 [The present compound (6), 5-{(2-propyloxy)ethoxy}-6-propyl-1,3-benzodioxol]	–	0	80
C=CCc1cc2c(cc1OCCOCCC)OCO2 [The present compound (5), 5-{2-(propyloxy)ethoxy}-6-(2-propenyl)-1,3-benzodioxol]	–	0	90
